In patent US20250195530A1, “POLQ INHIBITORS” (ASTRAZENECA AB, priority 2022, published 2025):

Assays:
DLD-1 cells = test: Inhibition of proliferation, DLD-1 BRCA2 wt control (Cell Titre Glo 3D); format: cell-based; conditions: Homo sapiens, DLD-1, 168 h, DLD-1 BRCA2 wt cells, 7 days; read-out: POLQ PD Prolif Lumin DLD1 mean pIC50 (converted)
Method in brief: (§1)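 Wild-type DLD-1 serves as the control for non-specific toxicity, and BRCA2-null DLD-1 as the homologous-recombination-deficient line. Both grew with compound from 10 μM down to 0.51 nM, re-dosed after 6 days. Luminescent ATP content (CellTiter-Glo 3D) was read after 7 or 12 days, respectively, to give IC50 values.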

DLD-1 BRCA2−/− cells = test: Homologous recombination synthetic lethal inhibition of proliferation, DLD-1 BRCA2-/- (Cell Titre Glo 3D); format: cell-based; conditions: Homo sapiens, DLD-1, 288 h, DLD-1 BRCA2−/− cells, 12 days; read-out: POLQ PD Prolif Lumin BRCA2 −/− mean pIC50 (converted)
Method in brief: as §1

Structure (SMILES) | IC50 (DLD-1 cells) [nM] | IC50 (DLD-1 BRCA2−/− cells) [nM]
CC1(Oc2ncnc3c2nc(-c2cccc(OCCN4CCNCC4)c2Cl)n3Cc2ccccc2)CC1 [Example D10, 9-benzyl-8-(2-chloro-3-(2-(piperazin-1-yl)ethoxy)phenyl)-6-(1-methylcyclopropoxy)-9H-purine] | 5010 | 126
CC1(Oc2ncnc3c2nc(-c2cccc(OC4CCNCC4)c2Cl)n3Cc2ccccc2)CC1 [Example D11, 9-benzyl-8-(2-chloro-3-(piperidin-4-yloxy)phenyl)-6-(1-methylcyclopropoxy)-9H-purine] | 3160 | 251
CN1CCN(CCOc2cccc(-c3nc4c(OC5(C)CC5)ncnc4n3Cc3ccccc3)c2Cl)CC1 [Example D12, 9-benzyl-8-(2-chloro-3-(2-(4-methylpiperazin-1-yl)ethoxy)phenyl)-6-(1-methylcyclopropoxy)-9H-purine] | 5010 | 50.1
CC1(Oc2ncnc3c2nc(-c2ccc(OCCN4CCNC(=O)C4)cc2Cl)n3Cc2ccccc2)CC1 [Example D15, 4-(2-(4-(9-benzyl-6-(1-methylcyclopropoxy)-9H-purin-8-yl)-3-chlorophenoxy)ethyl)piperazin-2-one] | > 10000 | 79.4
CC1(Oc2ncnc3c2nc(-c2ccc(OC[C@H]4CCN4)cc2Cl)n3Cc2ccccc2)CC1 [Example D16, (R)-8-(4-(azetidin-2-ylmethoxy)-2-chlorophenyl)-9-benzyl-6-(1-methylcyclopropoxy)-9H-purine] | 3980 | 158
CC1(Oc2ncnc3c2nc(-c2ccc(O[C@H]4CCNC4)cc2Cl)n3Cc2ccccc2)CC1 [Example D17, (S)-9-benzyl-8-(2-chloro-4-(pyrrolidin-3-yloxy)phenyl)-6-(1-methylcyclopropoxy)-9H-purine] | 3160 | 100
CC1(Oc2ncnc3c2nc(-c2ccc(OCCCN4CCNCC4)cc2Cl)n3Cc2ccccc2)CC1 [Example D18, 9-benzyl-8-(2-chloro-4-(3-(piperazin-1-yl)propoxy)phenyl)-6-(1-methylcyclopropoxy)-9H-purine] | 3160 | 126
CC1(Oc2ncnc3c2nc(-c2ccc(OCC4(F)CNC4)cc2Cl)n3Cc2ccccc2)CC1 [Example D19, 9-benzyl-8-(2-chloro-4-((3-fluoroazetidin-3-yl)methoxy)phenyl)-6-(1-methylcyclopropoxy)-9H-purine] | 5010 | 501
CN(C)C(=O)COc1ccc(-c2nc3c(OC4(C)CC4)ncnc3n2Cc2ccccc2)c(Cl)c1 [Example D20, 2-(4-(9-benzyl-6-(1-methylcyclopropoxy)-9H-purin-8-yl)-3-chlorophenoxy)-N,N-dimethylacetamide] | > 10000 | 200
CNC(=O)COc1ccc(-c2nc3c(OC4(C)CC4)ncnc3n2Cc2ccccc2)c(Cl)c1 [Example D21, 2-(4-(9-benzyl-6-(1-methylcyclopropoxy)-9H-purin-8-yl)-3-chlorophenoxy)-N-methylacetamide] | > 10000 | 126
CC(=O)N1CCN(CCCOc2ccc(-c3nc4c(OC5(C)CC5)ncnc4n3Cc3ccccc3)c(Cl)c2)CC1 [Example D22, 1-(4-(3-(4-(9-benzyl-6-(1-methylcyclopropoxy)-9H-purin-8-yl)-3-chlorophenoxy)propyl)piperazin-1-yl)ethan-1-one] | > 10000 | 126
CC1(Oc2ncnc3c2nc(-c2ccc(OCCN)cc2Cl)n3Cc2ccccc2)CC1 [Example D23, 2-(4-(9-benzyl-6-(1-methylcyclopropoxy)-9H-purin-8-yl)-3-chlorophenoxy)ethan-1-amine] | 7940 | 794
CC1(Oc2ncnc3c2nc(-c2ccc(OCC(=O)O)cc2Cl)n3Cc2ccccc2)CC1 [Example D24, 2-(4-(9-benzyl-6-(1-methylcyclopropoxy)-9H-purin-8-yl)-3-chlorophenoxy)acetic acid] | > 10000 | > 10000
CC1(Oc2ncnc3c2nc(-c2ccc(OC[C@H]4CCCN4)cc2Cl)n3Cc2ccccc2)CC1 [Example D25, (R)-9-benzyl-8-(2-chloro-4-(pyrrolidin-2-ylmethoxy)phenyl)-6-(1-methylcyclopropoxy)-9H-purine] | 2510 | 100
CC1(Oc2ncnc3c2nc(-c2ccc(OCC(N)=O)cc2Cl)n3Cc2ccccc2)CC1 [Example D27, 2-(4-(9-benzyl-6-(1-methylcyclopropoxy)-9H-purin-8-yl)-3-chlorophenoxy)acetamide] | > 10000 | 100
CC1(Oc2ncnc3c2nc(-c2ccc(OCC(=O)NCCO)cc2Cl)n3Cc2ccccc2)CC1 [Example D28, 2-(4-(9-benzyl-6-(1-methylcyclopropoxy)-9H-purin-8-yl)-3-chlorophenoxy)-N-(2-hydroxyethyl)acetamide] | > 10000 | 79.4
CC1(Oc2ncnc3c2nc(-c2ccc(OCCNCC(=O)O)cc2Cl)n3Cc2ccccc2)CC1 [Example D29, (2-(4-(9-benzyl-6-(1-methylcyclopropoxy)-9H-purin-8-yl)-3-chlorophenoxy)ethyl)glycine] | > 10000 | 5010
CN(CCOc1ccc(-c2nc3c(OC4(C)CC4)ncnc3n2Cc2ccccc2)c(Cl)c1)CC(=O)O [Example D30, N-(2-(4-(9-benzyl-6-(1-methylcyclopropoxy)-9H-purin-8-yl)-3-chlorophenoxy)ethyl)-N-methylglycine] | > 10000 | 1260
CC1(Oc2ncnc3c2nc(-c2ccc(O[C@H]4CNC[C@H]4F)cc2Cl)n3Cc2ccccc2)CC1 [Example D31, 9-benzyl-8-(2-chloro-4-(((3S,4R)-4-fluoropyrrolidin-3-yl)oxy)phenyl)-6-(1-methylcyclopropoxy)-9H-purine] | 7940 | 200
CC1(Oc2ncnc3c2nc(-c2ccc(O[C@@H]4CCCNC4)cc2Cl)n3Cc2ccccc2)CC1 [Example D32, (R)-9-benzyl-8-(2-chloro-4-(piperidin-3-yloxy)phenyl)-6-(1-methylcyclopropoxy)-9H-purine] | 6310 | 126
CC1(Oc2ncnc3c2nc(-c2ccc(OC4CCNCC4)cc2Cl)n3Cc2ccccc2)CC1 [Example D33, 9-benzyl-8-(2-chloro-4-(piperidin-4-yloxy)phenyl)-6-(1-methylcyclopropoxy)-9H-purine] | 3160 | 63.1
CC1(Oc2ncnc3c2nc(-c2ccc(OC4CC5(CNC5)C4)cc2Cl)n3Cc2ccccc2)CC1 [Example D34, 8-(4-((2-azaspiro[3.3]heptan-6-yl)oxy)-2-chlorophenyl)-9-benzyl-6-(1-methylcyclopropoxy)-9H-purine] | 3980 | 200
CC1(Oc2ncnc3c2nc(-c2ccc(OC4CNC4)cc2Cl)n3Cc2ccccc2)CC1 [Example D35, 8-(4-(azetidin-3-yloxy)-2-chlorophenyl)-9-benzyl-6-(1-methylcyclopropoxy)-9H-purine] | 3980 | 501
CN1CCN(CCOc2ccc(-c3nc4c(OC5(C)CC5)ncnc4n3Cc3ccccc3Cl)c(Cl)c2)CC1 [Example E1, 8-(2-chloro-4-(2-(4-methylpiperazin-1-yl)ethoxy)phenyl)-9-(2-chlorobenzyl)-6-(1-methylcyclopropoxy)-9H-purine] | 2510 | 31.6
